Laboratory results published in publication PMC7129916 (Clinical Microbiology and Infection, 2015).
≈ marks a conversion by molar mass, not a printed value. Read-outs that look alike come from different tables or passages of the source.

Assays:
S. pneumoniae [1] = test system: S. pneumoniae
group B streptococci = type: cell-based
M. catarrhalis [2] = assay: microbe, parasite or virus in culture; type: cell-based
M. catarrhalis (Mc) = assay: microbe, parasite or virus in culture; type: cell-based; details: Moraxella catarrhalis
H. influenzae (Hi) = assay: microbe, parasite or virus in culture; type: cell-based; details: Haemophilus influenzae
S. pneumoniae (Sp) = assay: microbe, parasite or virus in culture; type: cell-based; details: Streptococcus pneumoniae
S. pneumoniae [3] = assay: microbe, parasite or virus in culture; type: cell-based; details: for susceptible (%): DIN breakpoints
H. influenzae = assay: microbe, parasite or virus in culture; type: cell-based
M. catarrhalis [4] = assay: microbe, parasite or virus in culture; type: cell-based; details: Moraxella catarrhalis
[5] = test system: viridans group streptococci; assay: organism not typed; type: cell-based
[6] = type: in vivo, human; details: after 6 months
invasive GAS isolates = type: cell-based, S. pyogenes
[7] = test system: beta1-integrin in human tendon cells
[8] = test system: viridans Streptococci (S. mitis, S. oralis); type: cell-based; details: susceptible strains, salivary concentrations
[9] = test system: S. pneumoniae with reduced susceptibility to ciprofloxacin; assay: microbe, parasite or virus in culture; type: cell-based

MIC50 (M. catarrhalis (Mc)) [µg/mL]	MIC90 (M. catarrhalis (Mc)) [µg/mL]	MIC90 (S. pneumoniae (Sp)) [µg/mL]	Compound	%I (S. pneumoniae [1]; 2002 (n = 103)) [%]	%S (S. pneumoniae [1]; 2002 (n = 103)) [%]	%I (S. pneumoniae [1]; 2003 (n = 137)) [%]	%R (S. pneumoniae [1]; 2003 (n = 137)) [%]	%S (S. pneumoniae [1]; 2003 (n = 137)) [%]	%I (S. pneumoniae [1]; 2004 (n = 110)) [%]	%R (S. pneumoniae [1]; 2004 (n = 110)) [%]	%S (S. pneumoniae [1]; 2004 (n = 110)) [%]	susceptibility of all strains (group B streptococci)	further results
–	–	–	Quinupristin-Dalfopristin	5.8	94.2	0	0	100	1	0	99	–	%R (S. pneumoniae [1]; 2002 (n = 103)): 0%
–	–	–	CN[C@H](CC(C)C)C(=O)N[C@H]1C(=O)N[C@@H](CC(N)=O)C(=O)N[C@H]2C(=O)N[C@H]3C(=O)N[C@H](C(=O)N[C@H](C(=O)O)c4cc(O)cc(O)c4-c4cc3ccc4O)[C@H](O)c3ccc(c(Cl)c3)Oc3cc2cc(c3O[C@@H]2O[C@H](CO)[C@@H](O)[C@H](O)[C@H]2O[C@H]2C[C@](C)(N)[C@H](O)[C@H](C)O2)Oc2ccc(cc2Cl)[C@H]1O [vancomycin]	–	–	–	–	–	–	–	–	susceptible	%I (S. pneumoniae [1]): 0%; %R (S. pneumoniae [1]): 0%; %S (S. pneumoniae [1]): 100%
–	–	–	teicoplanin	–	–	–	–	–	–	–	–	susceptible	–
64 (≈ 191 µM)	64 (≈ 191 µM)	0.5 (≈ 1.5 µM)	CC1(C)S[C@@H]2[C@H](NC(=O)Cc3ccccc3)C(=O)N2[C@H]1C(=O)O [penicillin]	31.1	46.6	55.5	5	39.5	30	11	59	susceptible	susceptible (%) (M. catarrhalis [2]): 9.8%; MIC50 (H. influenzae (Hi)): 1 µg/mL (≈ 2.99 µM); MIC90 (H. influenzae (Hi)): 64 µg/mL (≈ 191 µM); MIC50 (S. pneumoniae (Sp)): 0.03 µg/mL (≈ 0.0897 µM); susceptible (%) (S. pneumoniae [3]): 93.3%; %R (S. pneumoniae [1]; 2002 (n = 103)): 22.3%; susceptible (%) (H. influenzae): 1.0%
–	–	–	quinupristin/dalfopristin	–	–	–	–	–	–	–	–	susceptible	–
–	0.25 (≈ 0.563 µM)	8 (≈ 18 µM)	C[C@H]1c2cccc(O)c2C(=O)C2=C(O)[C@]3(O)C(=O)C(C(N)=O)=C(O)[C@@H](N(C)C)[C@@H]3[C@@H](O)[C@@H]21 [doxycycline]	–	–	–	–	–	–	–	–	–	–
–	–	–	CO/N=C1\CN(c2nc3c(cc2F)c(=O)c(C(=O)O)cn3C2CC2)CC1CN (stereo not drawn) [gemifloxacin]	–	–	–	–	–	–	–	–	–	MIC50 (M. catarrhalis [4]): ≤ 0.12 µg/mL
0.5 (≈ 0.902 µM)	1 (≈ 1.8 µM)	0.25 (≈ 0.451 µM)	CO/N=C(\C(=O)N[C@@H]1C(=O)N2C(C(=O)O)=C(CSc3nc(=O)c(=O)[nH]n3C)CS[C@H]12)c1csc(N)n1 [ceftriaxone]	–	–	–	–	–	–	–	–	–	MIC90 (H. influenzae (Hi)): 0.03 µg/mL (≈ 0.0541 µM); MIC50 (S. pneumoniae (Sp)): 0.03 µg/mL (≈ 0.0541 µM)
–	–	–	amoxicillin/clavulanate	–	–	–	–	–	–	–	–	–	susceptible (%) (M. catarrhalis [2]): 99.1%; susceptible (%) (H. influenzae): 87.9%
–	–	–	CC[C@H]1OC(=O)[C@H](C)[C@@H](O[C@H]2C[C@@](C)(OC)[C@@H](O)[C@H](C)O2)[C@H](C)[C@@H](O[C@@H]2O[C@H](C)C[C@H](N(C)C)[C@H]2O)[C@](C)(OC)C[C@@H](C)C(=O)[C@H](C)[C@@H](O)[C@]1(C)O [clarithromycin]	0	58.8	0	38.7	61.3	1	34.5	64.5	–	susceptible (%) (S. pneumoniae [3]): 85.7%; susceptible (%) (H. influenzae): 4.5%
–	–	–	CC(=O)NC[C@H]1CN(c2ccc(N3CCOCC3)c(F)c2)C(=O)O1 [linezolid]	–	–	–	–	–	–	–	–	–	MIC [5]: 0.5 µg/mL (≈ 1.48 µM); %I (S. pneumoniae [1]): 0%; %R (S. pneumoniae [1]): 0%; %S (S. pneumoniae [1]): 100%
–	–	–	CN(C)[C@@H]1C(O)=C(C(N)=O)C(=O)[C@@]2(O)C(O)=C3C(=O)c4c(O)cccc4[C@@](C)(O)[C@H]3C[C@@H]12 [tetracycline]	–	–	–	–	–	–	–	–	–	mean per cent reduction, inflammatory lesions [6]: 56%; mean per cent reduction, non-inflammatory lesions [6]: 45%; resistant isolates (invasive GAS isolates): 50%
0.03 (≈ 0.083 µM)	0.06 (≈ 0.166 µM)	1 (≈ 2.77 µM)	C[C@H]1COc2c(N3CCN(C)CC3)c(F)cc3c(=O)c(C(=O)O)cn1c23 [levofloxacin]	3	96	0.7	1.5	97.8	0	0	100	susceptible	MIC50 (H. influenzae (Hi)): 0.03 µg/mL (≈ 0.083 µM); MIC90 (H. influenzae (Hi)): 0.03 µg/mL (≈ 0.083 µM); amount of beta1-integrin vs untreated control ([7]; 3 mg/l, 1-4 days): no effect; time to eradication [8]: 12 to 24 h; MIC50 (S. pneumoniae (Sp)): 1 µg/mL (≈ 2.77 µM); MIC90 (S. pneumoniae [3]; n = 426): 1 µg/mL (≈ 2.77 µM); %R (S. pneumoniae [1]; 2002 (n = 103)): 1%; MIC50 ([9]; Streptococcus pneumoniae): 0.5 µg/mL (≈ 1.38 µM); MIC90 ([9]; Streptococcus pneumoniae): 1 µg/mL (≈ 2.77 µM); MIC90 ([9]; ciprofloxacin MIC ≥8 mg/L): 8; MIC50 (M. catarrhalis [4]): ≤ 0.03 µg/mL; MIC (M. catarrhalis [4]; read-out: MIC 10» (second value)): 1 µg/mL (≈ 2.77 µM)
–	–	–	CC[C@H]1OC(=O)[C@H](C)[C@@H](O[C@H]2C[C@@](C)(OC)[C@@H](O)[C@H](C)O2)[C@H](C)[C@@H](O[C@@H]2O[C@H](C)C[C@H](N(C)C)[C@H]2O)[C@](C)(O)C[C@@H](C)C(=O)[C@H](C)[C@@H](O)[C@]1(C)O [erythromycin]	0	56.9	1.4	38.8	59.8	0	35.5	64.5	–	MIC ([5]; S. sanguis mef(A)): 4 µg/mL (≈ 5.45 µM); %R (S. pneumoniae [1]; 2002 (n = 103)): 43.1%
1 (≈ 2.86 µM)	4 (≈ 11.4 µM)	0.25 (≈ 0.715 µM)	CC1(C)S[C@@H]2[C@H](NC(=O)[C@H](N)c3ccccc3)C(=O)N2[C@H]1C(=O)O [ampicillin]	–	–	–	–	–	–	–	–	susceptible	MIC50 (H. influenzae (Hi)): 0.5 µg/mL (≈ 1.43 µM)
–	–	–	CO/N=C(\C(=O)N[C@@H]1C(=O)N2C(C(=O)O)=C(COC(C)=O)CS[C@H]12)c1csc(N)n1 [cefotaxime]	3.8	95.2	4.4	0.6	95	3.8	0	96.2	–	%R (S. pneumoniae [1]; 2002 (n = 103)): 1%
1 (≈ 2.36 µM)	–	1 (≈ 2.36 µM)	CO/N=C(\C(=O)N[C@@H]1C(=O)N2C(C(=O)O)=C(COC(N)=O)CS[C@H]12)c1ccco1 [cefuroxime]	–	–	–	–	–	–	–	–	–	MIC50 (H. influenzae (Hi)): 1 µg/mL (≈ 2.36 µM)
0.06 (≈ 0.181 µM)	0.06 (≈ 0.181 µM)	2 (≈ 6.04 µM)	O=C(O)c1cn(C2CC2)c2cc(N3CCNCC3)c(F)cc2c1=O [ciprofloxacin]	–	–	–	–	–	–	–	–	–	amount of beta1-integrin vs untreated control [7]: significant decrease; MIC50 (S. pneumoniae (Sp)): 1 µg/mL (≈ 3.02 µM)
